Source: the supplement of paper PMC10307832

Tests used:
Assay in all cases: relative viability (nuclei count vs DMSO), 5 days (fraction); higher = more cells survive
VX-11e + Luminespib = compound: CC1=CN=C(N=C1C2=CNC(=C2)C(=O)N[C@H](CO)C3=CC(=CC=C3)Cl)NC4=C(C=C(C=C4)F)Cl [VX-11e] + CCNC(=O)c1noc(-c2cc(C(C)C)c(O)cc2O)c1-c1ccc(CN2CCOCC2)cc1 [Luminespib] (partner 0.01 µM)
In short: (§1)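 Five library-drug doses in √10 steps were combined with a fixed anchor-drug dose, or a single drug was given alone, by pin tool to lung cancer cell lines in 1536-well plates the day after seeding. Nuclei were stained and counted after 5 days. Relative viability is the nuclei count in treated wells over that in vehicle wells, taken as the median of duplicate plates.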

VX-11e + Palbociclib = compound: CC1=CN=C(N=C1C2=CNC(=C2)C(=O)N[C@H](CO)C3=CC(=CC=C3)Cl)NC4=C(C=C(C=C4)F)Cl [VX-11e] + CC(=O)c1c(C)c2cnc(Nc3ccc(N4CCNCC4)cn3)nc2n(C2CCCC2)c1=O [Palbociclib] (partner 0.5 µM)
In short: as §1

VX-11e + Pictilisib = compound: CC1=CN=C(N=C1C2=CNC(=C2)C(=O)N[C@H](CO)C3=CC(=CC=C3)Cl)NC4=C(C=C(C=C4)F)Cl [VX-11e] + CS(=O)(=O)N1CCN(Cc2cc3nc(-c4cccc5[nH]ncc45)nc(N4CCOCC4)c3s2)CC1 [Pictilisib] (partner 1 µM)
In short: as §1

VX-11e + OSI-027 = compound: CC1=CN=C(N=C1C2=CNC(=C2)C(=O)N[C@H](CO)C3=CC(=CC=C3)Cl)NC4=C(C=C(C=C4)F)Cl [VX-11e] + COc1cccc2cc(-c3nc([C@H]4CC[C@H](C(=O)O)CC4)n4ncnc(N)c34)[nH]c12 [OSI-027] (partner 0.5 µM)
In short: as §1

Cell Line	relative viability (VX-11e + Luminespib; first compound 0.04 µM)	relative viability (VX-11e + Luminespib; first compound 0.1265 µM)	relative viability (VX-11e + Luminespib; first compound 0.4 µM)	relative viability (VX-11e + Luminespib; first compound 1.265 µM)	relative viability (VX-11e + Luminespib; first compound 4 µM)	relative viability (VX-11e + Palbociclib; first compound 0.04 µM)	relative viability (VX-11e + Palbociclib; first compound 0.1265 µM)	relative viability (VX-11e + Palbociclib; first compound 0.4 µM)	relative viability (VX-11e + Palbociclib; first compound 1.265 µM)	relative viability (VX-11e + Palbociclib; first compound 4 µM)	relative viability (VX-11e + Pictilisib; first compound 0.04 µM)	relative viability (VX-11e + Pictilisib; first compound 0.1265 µM)	relative viability (VX-11e + Pictilisib; first compound 0.4 µM)	relative viability (VX-11e + Pictilisib; first compound 1.265 µM)	relative viability (VX-11e + Pictilisib; first compound 4 µM)	relative viability (VX-11e + OSI-027; first compound 0.04 µM)	relative viability (VX-11e + OSI-027; first compound 0.1265 µM)	relative viability (VX-11e + OSI-027; first compound 0.4 µM)	relative viability (VX-11e + OSI-027; first compound 1.265 µM)	relative viability (VX-11e + OSI-027; first compound 4 µM)
PC-3 [JPC-3]	0.627	0.595	0.66	0.744	0.591	0.565	0.558	0.519	0.624	0.546	0.608	0.684	0.703	0.644	0.635	0.705	0.714	0.685	0.866	0.544
NCI-H2342	0.79	0.76	0.558	0.617	0.747		0.542	0.521	0.568	0.515						0.505	0.592	0.637	0.539	0.56
HCC-44	1.17	0.96	0.364	0.556	0.916	0.984	0.885	0.96	1.07	1.29	0.539	0.552	0.628	0.359	0.163	0.485	0.453	0.144	0.247	0.284
IA-LM											0.327	0.263	0.199	0.0879	0.0695					
NCI-H1734	0.203	0.21	0.269	0.205	0.163	0.342	0.382	0.355	0.327	0.224	0.358	0.39	0.376	0.31	0.245	0.566	0.459	0.472	0.348	0.227
NCI-H358		0.312	0.208	0.464	0.117	0.122	0.139	0.0851	0.148	0.118	0.3	0.313		0.372	0.254	0.734	0.642	0.25	0.382	0.132
NCI-H650	0.749	0.8	0.606	0.772	0.677	0.358	0.487	0.519	0.329	0.491		0.927	1.23		0.819	0.531	0.616	0.75	0.559	0.518
LXF-289	0.641	0.592	0.659	0.656	0.407	0.633	0.61		0.618	0.473	0.785	0.754	0.66	0.686	0.333	0.686	0.58	0.174	0.517	0.358
NCI-H838	0.413	0.273	0.207	0.347	0.264	0.225	0.187	0.18	0.214	0.203	0.333	0.435	0.266	0.424	0.292	0.356	0.413	0.3	0.347	0.262
